Results on 21 compounds are retold here after patent US20200361914A1, “SUBSTITUTED BENZENE AND 6,5-FUSED BICYCLIC HETEROARYL COMPOUNDS” (Epizyme, Inc., priority 2014, published 2020).

Like-named read-outs stand apart in the source and are kept apart here.

A word on the IC50: it is the point on the concentration scale where inhibition reaches its midpoint. Low values mean inhibition by little substance, high ones a need for much substance.

In assay [1] the target is Y641 mutant PRC2 enzyme (EZH2 Y641) (Homo sapiens, UniProt Q15910, Y641F). In words: PRC2 enzyme assay on peptide substrate, Y641 mutant EZH2.
Chain of Y641 mutant PRC2 enzyme (EZH2 Y641) (Q15910 whole entry Y641F): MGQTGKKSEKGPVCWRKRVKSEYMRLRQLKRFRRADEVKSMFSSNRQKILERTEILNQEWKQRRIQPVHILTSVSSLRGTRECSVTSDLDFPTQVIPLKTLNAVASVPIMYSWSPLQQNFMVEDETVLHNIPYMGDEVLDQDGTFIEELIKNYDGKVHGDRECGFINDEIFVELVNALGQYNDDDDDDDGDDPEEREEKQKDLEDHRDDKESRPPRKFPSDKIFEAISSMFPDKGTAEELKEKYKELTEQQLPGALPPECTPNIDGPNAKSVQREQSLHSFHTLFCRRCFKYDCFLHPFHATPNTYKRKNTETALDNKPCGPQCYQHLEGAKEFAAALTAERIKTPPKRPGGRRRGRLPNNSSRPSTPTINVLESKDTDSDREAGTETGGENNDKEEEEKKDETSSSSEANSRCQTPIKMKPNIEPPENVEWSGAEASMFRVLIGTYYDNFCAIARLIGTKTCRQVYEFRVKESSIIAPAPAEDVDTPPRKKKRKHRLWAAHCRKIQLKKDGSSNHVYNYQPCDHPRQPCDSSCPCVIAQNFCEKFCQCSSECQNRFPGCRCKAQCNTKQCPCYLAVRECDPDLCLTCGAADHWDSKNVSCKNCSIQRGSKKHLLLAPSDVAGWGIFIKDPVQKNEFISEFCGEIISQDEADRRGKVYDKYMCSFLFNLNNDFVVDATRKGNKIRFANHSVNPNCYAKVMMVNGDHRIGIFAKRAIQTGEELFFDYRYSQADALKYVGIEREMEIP
Chain of Y641 mutant PRC2 enzyme (EZH2 Y641) (O75530 whole entry partner): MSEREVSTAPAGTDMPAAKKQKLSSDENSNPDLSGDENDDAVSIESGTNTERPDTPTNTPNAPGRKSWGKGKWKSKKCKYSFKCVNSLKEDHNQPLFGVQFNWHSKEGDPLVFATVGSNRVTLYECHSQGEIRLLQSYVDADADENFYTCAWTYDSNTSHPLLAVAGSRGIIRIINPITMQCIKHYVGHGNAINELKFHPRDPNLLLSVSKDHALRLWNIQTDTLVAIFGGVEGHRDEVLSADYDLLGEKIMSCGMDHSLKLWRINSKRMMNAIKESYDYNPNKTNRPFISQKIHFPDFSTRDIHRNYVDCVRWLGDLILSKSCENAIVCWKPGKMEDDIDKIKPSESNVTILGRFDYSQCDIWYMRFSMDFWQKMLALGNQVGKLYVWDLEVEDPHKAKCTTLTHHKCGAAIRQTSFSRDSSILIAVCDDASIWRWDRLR
Chain of Y641 mutant PRC2 enzyme (EZH2 Y641) (Q15022 whole entry partner): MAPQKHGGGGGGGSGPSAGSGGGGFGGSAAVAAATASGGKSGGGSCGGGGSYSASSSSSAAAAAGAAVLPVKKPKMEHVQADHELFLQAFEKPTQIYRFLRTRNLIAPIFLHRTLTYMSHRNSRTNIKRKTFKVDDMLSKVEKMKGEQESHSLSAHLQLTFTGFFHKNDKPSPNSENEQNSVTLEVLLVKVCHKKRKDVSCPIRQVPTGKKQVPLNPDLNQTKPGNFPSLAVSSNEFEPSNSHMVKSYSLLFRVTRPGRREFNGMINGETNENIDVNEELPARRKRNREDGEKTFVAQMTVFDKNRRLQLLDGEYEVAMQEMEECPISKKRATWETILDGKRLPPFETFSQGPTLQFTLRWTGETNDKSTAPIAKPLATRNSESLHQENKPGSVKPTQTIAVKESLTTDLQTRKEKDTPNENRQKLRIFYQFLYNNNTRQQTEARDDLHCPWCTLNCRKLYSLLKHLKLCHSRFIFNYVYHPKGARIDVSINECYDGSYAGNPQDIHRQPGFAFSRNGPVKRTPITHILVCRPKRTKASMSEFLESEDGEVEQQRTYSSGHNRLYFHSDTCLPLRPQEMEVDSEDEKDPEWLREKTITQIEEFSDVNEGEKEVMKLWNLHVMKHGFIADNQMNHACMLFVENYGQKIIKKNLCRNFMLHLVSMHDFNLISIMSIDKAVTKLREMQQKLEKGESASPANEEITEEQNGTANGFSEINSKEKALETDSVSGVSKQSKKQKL
Chain of Y641 mutant PRC2 enzyme (EZH2 Y641) (Q09028 whole entry partner): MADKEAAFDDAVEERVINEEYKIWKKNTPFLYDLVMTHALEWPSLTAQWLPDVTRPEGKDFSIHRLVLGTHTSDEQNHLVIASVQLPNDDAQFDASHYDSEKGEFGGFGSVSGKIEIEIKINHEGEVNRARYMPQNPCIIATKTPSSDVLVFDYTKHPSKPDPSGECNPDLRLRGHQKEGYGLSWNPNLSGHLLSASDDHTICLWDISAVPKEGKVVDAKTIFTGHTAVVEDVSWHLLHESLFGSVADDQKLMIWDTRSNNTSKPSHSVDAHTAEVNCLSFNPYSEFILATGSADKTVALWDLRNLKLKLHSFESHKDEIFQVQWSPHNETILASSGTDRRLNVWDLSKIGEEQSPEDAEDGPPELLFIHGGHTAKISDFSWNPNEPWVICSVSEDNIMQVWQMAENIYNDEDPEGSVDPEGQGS
Source text: (§1) S-adenosylmethionine (SAM), S-adenosylhomocyteine (SAH), bicine, KCl, Tween20, dimethylsulfoxide (DMSO) and bovine skin gelatin (BSG) can be purchased from Sigma-Aldrich at the highest level of purity possible. Dithiothreitol (DTT) was purchased from EMD. ^3H-SAM can be purchased from American Radiolabeled Chemicals with a specific activity of 80 C1/mmol. 384-well streptavidin Flashplates can be purchased from PerkinElmer.
(§2) Recombinant PRC2 Enzymes. Human PRC2 enzymes are purified as 4-component enzyme complexes co-expressed in Spodoptera frugiperda (sf9) cells using a baculovirus expression system. […] The EED subunit contains an N-terminal FLAG tag that is used to purify the entire 4-component complex from sf9 cell lysates. The purity of the complexes meets or exceeds 95% as determined by SDS-PAGE and Agilent Bioanalyzer analysis.
(§3) General Procedure for PRC2 Enzyme Assays on Peptide Substrates. The assays are all performed in a buffer consisting of 20 mM bicine (pH=7.6), 0.5 mM DTT, 0.005% BSG and 0.002% Tween20, prepared on the day of use. […] DMSO (1 μL) is added to columns 11, 12, 23, 24, rows A-H for the maximum signal control, and SAH, a known product and inhibitor of PRC2 (1 μL) is added to columns 11, 12, 23, 24, rows I-P for the minimum signal control. A cocktail (40 μL) containing the wild-type PRC2 enzyme and H3K27me0 peptide or any of the Y641 mutant enzymes and H3K27me2 peptide is added by Multidrop Combi (Thermo). The compounds are allowed to incubate with PRC2 for 30 min at 25° C., then a cocktail (10 μL) containing a mixture of non-radioactive and ^3H-SAM is added to initiate the reaction (final volume=51 μL). […] The assays are stopped by the addition of non-radioactive SAM (10 μL) to a final concentration of 600 μM, which dilutes the ^3H-SAM to a level where its incorporation into the peptide substrate is no longer detectable. 50 μL of the reaction in the 384-well polypropylene plate is then transferred to a 384-well Flashplate and the biotinylated peptides are allowed to bind to the streptavidin surface for at least 1h before being washed three times with 0.1% Tween20 in a Biotek ELx405 plate washer. The plates are then read in a PerkinElmer TopCount platereader to measure the quantity of ^3H-labeled peptide bound to the Flashplate surface, measured as disintegrations per minute (dpm) or alternatively, referred to as counts per minute (cpm).
(§4) Where dpm=disintegrations per minute, cmpd=signal in assay well, and min and max are the respective minimum and maximum signal controls.
(§5) Where top and bottom are the normally allowed to float, but may be fixed at 100 or 0 respectively in a 3-parameter fit. The Hill Coefficient normally allowed to float but may also be fixed at 1 in a 3-parameter fit. Y is the % inhibition and X is the compound concentration.
In assay [2] the target is wild-type PRC2 enzyme (EZH2 WT) (Homo sapiens, UniProt Q15910). The assay can be described thus: PRC2 enzyme assay on peptide substrate, wild-type EZH2.
Chain of wild-type PRC2 enzyme (EZH2 WT) (Q15910 whole entry): as the sequence (Q15910 whole entry Y641F) above, with F641Y counted along it
Chain of wild-type PRC2 enzyme (EZH2 WT) (O75530 whole entry partner): as the sequence (O75530 whole entry partner) above
Chain of wild-type PRC2 enzyme (EZH2 WT) (Q15022 whole entry partner): as the sequence (Q15022 whole entry partner) above
Chain of wild-type PRC2 enzyme (EZH2 WT) (Q09028 whole entry partner): as the sequence (Q09028 whole entry partner) above
Source text: as §1, §2, §3, §4, §5
The mark [3] stands for this setting: EZH2 Y641 IC50 (μM), Y641 mutant EZH2 such as Y641F, H3K27me2 peptide substrate.
[4] abbreviates: EZH2 WT IC50 (μM), wild-type PRC2 enzyme, H3K27me0 peptide substrate.

For the compound `COc1c(CNC(=O)c2ccc(C(C)Oc3ccccc3)c(Cl)c2)c(C)nn1C` (stereo not drawn) [compound 2, 3-chloro-N-((5-methoxy-1,3-dimethyl-1H-pyrazol-4-yl)methyl)-4-(1-phenoxyethyl)benzamide], the IC50 in assay [1] and in assay [2] was > 50 µM in each case.
As for `Cc1[nH]n(C)c(=O)c1CNC(=O)c1ccc(C(C)Oc2ccccc2)c(Cl)c1` (stereo not drawn) [compound 3, 3-chloro-N-((2,5-dimethyl-3-oxo-2,3-dihydro-1H-pyrazol-4-yl)methyl)-4-(1-phenoxyethyl)benzamide], the IC50 in assay [1] and in assay [2] was > 50 µM each time.
As for `Cc1c(CNC(=O)c2ccc(C(C)Oc3ccccc3)c(Cl)c2)c(=O)[nH]n1C` (stereo not drawn) [compound 4, 3-chloro-N-((1,5-dimethyl-3-oxo-2,3-dihydro-1H-pyrazol-4-yl)methyl)-4-(1-phenoxyethyl)benzamide], the IC50 in assay [1] and in assay [2] was > 50 µM throughout.
Take `COc1c(CNC(=O)c2ccc(C(C)Oc3ccccc3)cc2C)c(C)nn1C` (stereo not drawn) [compound 7, N-((5-methoxy-1,3-dimethyl-1H-pyrazol-4-yl)methyl)-2-methyl-4-(1-phenoxyethyl)benzamide]: the IC50 in assay [1] and in assay [2] was > 50 µM in each case.
Regarding `Cc1cc(C(C)Oc2ccccc2)ccc1C(=O)NCc1c(C)n(C)[nH]c1=O` (stereo not drawn) [compound 8, N-((1,5-dimethyl-3-oxo-2,3-dihydro-1H-pyrazol-4-yl)methyl)-2-methyl-4-(1-phenoxyethyl)benzamide], the IC50 in assay [1] and in assay [2] was > 50 µM in each case.
`COc1nn(C)c(C)c1CNC(=O)c1cc(Cl)c(C(C)Oc2ccccc2)cc1C` (stereo not drawn) [compound 9, 5-chloro-N-((3-methoxy-1,5-dimethyl-1H-pyrazol-4-yl)methyl)-2-methyl-4-(1-phenoxyethyl)benzamide]: the IC50 in assay [1] and in assay [2] was > 50 µM throughout.
For the compound `Cc1cc(C(C)Oc2ccccc2)c(Cl)cc1C(=O)NCc1c(C)n(C)[nH]c1=O` (stereo not drawn) [compound 10, 5-chloro-N-((1,5-dimethyl-3-oxo-2,3-dihydro-1H-pyrazol-4-yl)methyl)-2-methyl-4-(1-phenoxyethyl)benzamide], the IC50 in assay [1] and in assay [2] was 10 to 50 µM in each case.
`Cc1cc(=O)c(CNC(=O)c2cc(Cl)c(C(C)Oc3ccccc3)cc2C)c(C)[nH]1` (stereo not drawn) [compound 11, 5-chloro-N-((2,6-dimethyl-4-oxo-1,4-dihydropyridin-3-yl)methyl)-2-methyl-4-(1-phenoxyethyl)benzamide]: the values for the IC50 in assay [1] and in assay [2] were 1 to 10 µM and 10 to 50 µM, respectively.
In the case of `Cc1cc(=O)c(CNC(=O)c2ccc(Oc3cccc(-c4ccnnc4)c3C#N)c(Cl)c2)c(C)[nH]1` [compound 13, 3-chloro-4-(2-cyano-3-(pyridazin-4-yl)phenoxy)-N-((2,6-dimethyl-4-oxo-1,4-dihydropyridin-3-yl)methyl)benzamide], the 50% inhibitory concentration (IC50) was in the range of 1 to 10 µM in assay [1] and 10 to 50 µM in assay [2].
In the case of `COc1nn(C)c(C)c1CNC(=O)c1ccc(Oc2cccc(-c3ccnnc3)c2C#N)c(Cl)c1` [compound 14, 3-chloro-4-(2-cyano-3-(pyridazin-4-yl)phenoxy)-N-((3-methoxy-1,5-dimethyl-1H-pyrazol-4-yl)methyl)benzamide], the IC50 in assay [1] and in assay [2] was > 50 µM in each case.
`Cc1c(CNC(=O)c2ccc(Oc3cccc(-c4ccnnc4)c3C#N)c(Cl)c2)c(=O)[nH]n1C` [compound 15, 3-chloro-4-(2-cyano-3-(pyridazin-4-yl)phenoxy)-N-((1,5-dimethyl-3-oxo-2,3-dihydro-1H-pyrazol-4-yl)methyl)benzamide]: the IC50 in assay [1] and in assay [2] was 10 to 50 µM in each case.
As to `COc1nn(C)c(C)c1CNC(=O)c1cc(Cl)c(Oc2cccc(-c3ccnnc3)c2C#N)cc1C` [compound 17, 5-chloro-4-(2-cyano-3-(pyridazin-4-yl)phenoxy)-N-((3-methoxy-1,5-dimethyl-1H-pyrazol-4-yl)methyl)-2-methylbenzamide], the IC50 in assay [1] and in assay [2] was > 50 µM in each case.
For `Cc1cc(Oc2cccc(-c3ccnnc3)c2C#N)c(Cl)cc1C(=O)NCc1c(C)n(C)[nH]c1=O` [compound 18, 5-chloro-4-(2-cyano-3-(pyridazin-4-yl)phenoxy)-N-((1,5-dimethyl-3-oxo-2,3-dihydro-1H-pyrazol-4-yl)methyl)-2-methylbenzamide], the IC50 in assay [1] and in assay [2] was 1 to 10 µM each time.
In the case of `COc1nn(C)c(C)c1CNC(=O)c1c(C)n(C(C)C2CCOCC2)c2ccccc12` (stereo not drawn) [compound 22, N-((3-methoxy-1,5-dimethyl-1H-pyrazol-4-yl)methyl)-2-methyl-1-(1-(tetrahydro-2H-pyran-4-yl)ethyl)-1H-indole-3-carboxamide], the IC50 in assay [1] (setting [3]) and in assay [2] (setting [4]) was > 50 µM each time.
Consider `Cc1c(CNC(=O)c2c(C)n(C(C)C3CCOCC3)c3ccccc23)c(=O)[nH]n1C` (stereo not drawn) [compound 23, N-((1,5-dimethyl-3-oxo-2,3-dihydro-1H-pyrazol-4-yl)methyl)-2-methyl-1-(1-(tetrahydro-2H-pyran-4-yl)ethyl)-1H-indole-3-carboxamide], for which the values for the concentration for half-maximal inhibition (IC50) in assay [1] (setting [3]) and in assay [2] (setting [4]) were 10 to 50 µM and > 50 µM, respectively.
For `CCC(C)n1cc(C)c2c(C(=O)NCc3c(OC)nn(C)c3C)cc(-c3ccc(N4CCNCC4)nc3)cc21` (stereo not drawn) [compound 27, 1-(sec-butyl)-N-((3-methoxy-1,5-dimethyl-1H-pyrazol-4-yl)methyl)-3-methyl-6-(6-(piperazin-1-yl)pyridin-3-yl)-1H-indole-4-carboxamide], the IC50 in assay [1] was 0.1 to 1 µM; in assay [2], 1 to 10 µM.
For `CCC(C)n1cc(C)c2c(C(=O)NCc3c(C)n(C)[nH]c3=O)cc(-c3ccc(N4CCNCC4)nc3)cc21` (stereo not drawn) [compound 28, 1-(sec-butyl)-N-((1,5-dimethyl-3-oxo-2,3-dihydro-1H-pyrazol-4-yl)methyl)-3-methyl-6-(6-(piperazin-1-yl)pyridin-3-yl)-1H-indole-4-carboxamide], the IC50 in assay [1] lay within 1 to 10 µM; in assay [2], 10 to 50 µM.
The corresponding values for `CCC(C)n1cc(C)c2c(C(=O)NCc3c(OC)nn(CC)c3C)cc(-c3ccc(N4CCNCC4)nc3)cc21` (stereo not drawn) [compound 29, 1-(sec-butyl)-N-((1-ethyl-3-methoxy-5-methyl-1H-pyrazol-4-yl)methyl)-3-methyl-6-(6-(piperazin-1-yl)pyridin-3-yl)-1H-indole-4-carboxamide] are 1 to 10 µM and 1 to 10 µM.
The corresponding values for `CCN(c1cc(Cl)cc(C(=O)NC2CC(C)(C)NC(C)(C)C2)c1C)[C@H]1CC[C@H](N(C)C)CC1` [compound 31, 5-chloro-3-(((trans)-4-(dimethylamino)cyclohexyl)(ethyl)amino)-2-methyl-N-(2,2,6,6-tetramethylpiperidin-4-yl)benzamide] are > 50 µM and > 50 µM.
The corresponding values for `CCN(c1cc(Cl)cc(C(=O)NC2CC(C)(C)NC(C)(C)C2)c1C)[C@H]1CC[C@H](N(C)CCOC)CC1` [compound 32, 5-chloro-3-(ethyl((trans)-4-((2-methoxyethyl)-(methyl)-amino)-cyclohexyl)amino)-2-methyl-N-(2,2,6,6-tetramethylpiperidin-4-yl)benzamide] are > 50 µM and > 50 µM.
On to `CCN(c1cc(-c2ccc(OCCOC)cc2)cc(C(=O)NC2CC(C)(C)NC(C)(C)C2)c1C)C1CCOCC1` [compound 34, 5-(ethyl(tetrahydro-2H-pyran-4-yl)amino)-4′-(2-methoxyethoxy)-4-methyl-N-(2,2,6,6-tetramethylpiperidin-4-yl)-[1,1′-biphenyl]-3-carboxamide], for which the IC50 in assay [1] and in assay [2] was > 50 µM each time.
